Source: ChEMBL document CHEMBL1201862, “PubChem BioAssay data set” (2004)
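How tested: cells in 96-well plates exposed to compound for 48 hours at five concentrations. GI50 = concentration required for 50% inhibition of growth.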 Active and inactive are the calls of the source. Cut-off read from the data, not from the text of the source: active = GI50 up to about 1.1 µM and inactive = higher.

How the values were obtained:
Assay in all cases: NCI anticancer screen, dose series, 48 h
HT-29 = tested on: HT-29
A549 = tested on: A549
SF-295 = tested on: SF-295
DU-145 = tested on: DU-145
SF-268 = tested on: SF-268
ACHN = tested on: ACHN
U-251 = tested on: U-251
MDA-MB-435 = tested on: MDA-MB-435
OVCAR-8 = tested on: OVCAR-8
COLO 205 = tested on: COLO 205
SK-MEL-2 = tested on: SK-MEL-2
OVCAR-4 = tested on: OVCAR-4
NCI-H460 = tested on: NCI-H460
786-0 = tested on: 786-0
M14 = tested on: M14
RPMI-8226 = tested on: RPMI-8226
NCI-H522 = tested on: NCI-H522
MDA-N = tested on: MDA-N

Measured: GI50

COc1cc(Oc2nc3ccccc3nc2C(=O)O)cc(OC)c1OC
inactive: HT-29 > 100 µM | A549 > 100 µM | SF-295 > 100 µM | DU-145 > 100 µM | SF-268 > 100 µM | ACHN > 100 µM | U-251 > 100 µM | MDA-MB-435 > 100 µM | OVCAR-8 > 100 µM | COLO 205 > 100 µM | SK-MEL-2 > 100 µM | OVCAR-4 > 100 µM | NCI-H460 > 100 µM | 786-0 > 100 µM | M14 > 100 µM | RPMI-8226 > 100 µM | NCI-H522 > 100 µM

CC(/C=C/c1ccccc1)=N\NC(N)=S
inactive: HT-29 56.6 µM | A549 47.5 µM | SF-295 21.5 µM | DU-145 34.4 µM | SF-268 61.7 µM | MDA-N 29.6 µM | ACHN 38 µM | U-251 40.5 µM | MDA-MB-435 28.1 µM | OVCAR-8 39 µM | COLO 205 20.5 µM | NCI-H460 61.2 µM | 786-0 34 µM | M14 26.5 µM | RPMI-8226 33.7 µM

O=C1/C(=C/c2ccc(O)c(CN3CCCCC3)c2)CCC/C1=C\c1ccc(O)c(CN2CCCCC2)c1
inactive: HT-29 1.51 µM | A549 16.7 µM | SF-295 3.25 µM | DU-145 4.4 µM | SF-268 3.52 µM | MDA-N 4.66 µM | ACHN 6.31 µM | U-251 5.22 µM | MDA-MB-435 4.66 µM | OVCAR-8 4.48 µM | COLO 205 2.55 µM | SK-MEL-2 22.1 µM | OVCAR-4 6.81 µM | NCI-H460 3.05 µM | 786-0 3.52 µM | M14 16.1 µM | RPMI-8226 6.85 µM

CC[C@]12C=CCN3CC[C@@]4(c5cc(Br)c(OC)cc5N(C)[C@H]4[C@@](O)(C(=O)NN)[C@@H]1O)[C@@H]32
inactive: HT-29 > 100 µM | A549 > 100 µM | SF-295 65.5 µM | DU-145 > 100 µM | SF-268 56.1 µM | MDA-N 48.1 µM | ACHN 79.3 µM | U-251 52 µM | MDA-MB-435 93.5 µM | OVCAR-8 46.9 µM | COLO 205 > 100 µM | SK-MEL-2 29.8 µM | OVCAR-4 96.6 µM | NCI-H460 > 100 µM | 786-0 57.5 µM | M14 55.5 µM | NCI-H522 52.2 µM

Cc1ccc(NCc2nnc3c(-c4ccccc4)nc4ccccc4n23)cc1
inactive: HT-29 21.5 µM | A549 23.2 µM | SF-295 33.7 µM | DU-145 25.2 µM | SF-268 43.6 µM | MDA-N 26.2 µM | ACHN 23.9 µM | U-251 16.7 µM | MDA-MB-435 29.6 µM | OVCAR-8 24 µM | COLO 205 32.8 µM | SK-MEL-2 24.8 µM | OVCAR-4 28.2 µM | NCI-H460 28.8 µM | 786-0 27.9 µM | M14 37.6 µM | NCI-H522 16 µM

ON(CCc1ccncc1)Cc1ccccc1
inactive: HT-29 > 100 µM | A549 > 100 µM | SF-295 > 100 µM | DU-145 > 100 µM | SF-268 > 100 µM | ACHN > 100 µM | MDA-MB-435 > 100 µM | OVCAR-8 > 100 µM | COLO 205 > 100 µM | OVCAR-4 > 100 µM | 786-0 > 100 µM | M14 > 100 µM | RPMI-8226 > 100 µM | NCI-H522 > 100 µM

Cc1[nH]n(C2=NCCN2)c(=O)c1C
inactive: HT-29 > 100 µM | A549 > 100 µM | SF-295 > 100 µM | SF-268 > 100 µM | ACHN > 100 µM | U-251 > 100 µM | MDA-MB-435 > 100 µM | OVCAR-8 > 100 µM | COLO 205 > 100 µM | SK-MEL-2 > 100 µM | OVCAR-4 > 100 µM | NCI-H460 > 100 µM | 786-0 > 100 µM | M14 > 100 µM | RPMI-8226 > 100 µM | NCI-H522 > 100 µM

Cc1ccc(O)c(-c2cscn2)c1
inactive: HT-29 62.5 µM | A549 29.7 µM | SF-295 40 µM | MDA-N 40.2 µM | ACHN 32 µM | MDA-MB-435 52.6 µM | OVCAR-8 42.9 µM | COLO 205 12.5 µM | SK-MEL-2 64 µM | OVCAR-4 54 µM | NCI-H460 28.5 µM | 786-0 33.2 µM | M14 54.2 µM | RPMI-8226 36 µM

COc1ccc(/C=N\N(C)Cc2cccc3ccsc23)cc1
inactive: HT-29 49.2 µM | A549 > 100 µM | SF-295 > 100 µM | DU-145 > 100 µM | SF-268 > 100 µM | MDA-N 70.6 µM | ACHN > 100 µM | U-251 > 100 µM | MDA-MB-435 > 100 µM | OVCAR-8 > 100 µM | COLO 205 > 100 µM | OVCAR-4 92.5 µM | NCI-H460 > 100 µM | 786-0 > 100 µM | M14 > 100 µM | NCI-H522 > 100 µM
